# Data as given in patent US11738030B2, “Treatments for disturbed cerebral homeostasis” (Aneuryst, Inc., priority 2021, dated 2023).
# Structures can show the parent of a compound that is named as a salt. Where two headings read alike, the source gives them in different places.
# Experiments:
# [1] = Intraparenchymal ICP measurement in adult patient with suspected bacterial meningitis; type: in vivo; conditions: 60 mg intravenous infusion; adult patient with ICP>20 mmHg and suspected bacterial meningitis
# Description: In an adult patient with an ICP>20 mmHg and suspected bacterial meningitis as determined by lumbar puncture, one would administer by intravenous infusion 60 mg fasudil hydrochloride. One would place an intraparenchymal device to measure ICP in the patient.
# [2] = test system: adult male Sprague-Dawley rats; assay: Brain water content after endovascular perforation in rats; type: in vivo, rat; conditions: one treatment, 24 h
# Description: A sharpened 4-0 nylon suture was introduced into the left internal carotid artery of 92 adult male Sprague-Dawley rats weighing […]. In 65 of the 92 rats, the bifurcation of the anterior and middle cerebral arteries was endovascularly perforated; in the remaining 27 rats, the suture was withdrawn without perforation.
# At 0.5 hours after the procedure, 34 of the 65 perforated rats were administered 1.5 ml of 0.9% saline (vehicle group), and the remaining 31 were administered 10 mg/kg hydroxyfasudil dissolved in 1.5 ml of 0.9% saline (hydroxyfasudil group). The 27 unperforated rats received neither vehicle nor […] (sham group).
# 24 hours after the procedure, all rats were sacrificed. The animals' brains were removed and separated into left hemisphere, right hemisphere, cerebellum and brain stem. Each part was weighed immediately after removal (wet weight) and after drying in 100° C. for 72 h (dry weight). The percentage of water content was calculated as [(wet weight−dry weight)/wet weight]×100%.
# [3] = test system: adult male Sprague-Dawley rats; conditions: cited from earlier work; for Mean percentage of brain water content, Cerebellum / Mean percentage of brain water content, Left Hemisphere / Mean percentage of brain water content, Right Hemisphere: 24 hrs post-surgery
# [4] = test system: adult male Sprague-Dawley rats; conditions: cited from earlier work; for Garcia neurological score: SAH + HF
# [5] = one treatment, 10 mg/kg at 0.5 h after perforation, 10 mg/kg
# [6] = one treatment, 10 mg/kg at 0.5 h after perforation, listed as HF, 10 mg/kg
# [7] = two treatments instead of one, and measurements at 72 hours after perforation
compound,measurement,setting,value
O=S(=O)(c1cccc2cnccc12)N1CCCNCC1 [fasudil hydrochloride],ICP upon fasudil infusion,[1],reduction of ICP
O=c1[nH]ccc2c(S(=O)(=O)N3CCCNCC3)cccc12 [hydroxyfasudil],"Increase in water content versus sham group, right hemisphere",[2]; vehicle increase 0.5%,about 0.25%
same,"Increase in water content versus sham group, cerebellum",[2]; vehicle increase 0.6%,about 0.2%
same,"Increase in water content versus sham group, left hemisphere",[2]; vehicle increase 0.7%,about 0.3%
same,"Improvement in water content increase, left hemisphere","[2]; versus vehicle, p<0.01",about 57%
same,"Improvement in water content increase, right hemisphere","[2]; versus vehicle, p<0.01",about 70%
same,"Improvement in water content increase, cerebellum","[2]; versus vehicle, p<0.05",about 67%
same,"Mean percentage of brain water content, Cerebellum",[3]; [5],~78.7%
same,"Mean percentage of brain water content, Left Hemisphere",[3]; [5],~79.3%
same,"Mean percentage of brain water content, Right Hemisphere",[3]; [5],~79.25%
same,"Mean percentage of brain water content, Cerebellum",[3]; [6],78.7%
same,"Mean percentage of brain water content, Left Hemisphere",[3]; [6],79.3%
same,"Mean percentage of brain water content, Right Hemisphere",[3]; [6],79.35%
same,Difference in brain water content between vehicle group and hydroxyfasudil group,[3]; [7],failed to demonstrate any significant differences
same,"Mean percentage of brain water content, Cerebellum",[3]; two treatments,78.84%
same,"Mean percentage of brain water content, Left Hemisphere",[3]; two treatments,79.3%
same,"Mean percentage of brain water content, Right Hemisphere",[3]; two treatments,79.25%
same,Garcia neurological score,"[4]; 1 treatment, 24 hrs, score out of 18",14
same,Garcia neurological score,"[4]; 1 treatment, 72 hrs",14
same,Garcia neurological score,"[4]; 2 treatments, 24 hrs",15.5
same,Difference in neurological performance between vehicle group and hydroxyfasudil group,[4]; [7],failed to demonstrate any significant differences
